# Test results published in paper PMC6112376, “Comprehensive Analyses and Prioritization of Tox21 10K Chemicals Affecting Mitochondrial Function by in-Depth Mechanistic Studies” (Environmental Health Perspectives, 2018).
# Read-outs that look alike come from different tables or passages of the source.
# How the values were obtained:
# [1] = test system: Caenorhabditis elegans strain PE255; test: In vivo C. elegans ATP status assay
# [2] = test system: Nrf2/ARE (ARE-bla HepG2 cells); test: ARE β-lactamase reporter gene assay; assay type: cell-based, human
# [3] = test system: mitochondrial respiratory chain complex I; assay type: biochemical, rat
# [4] = test system: Caenorhabditis elegans (Bristol N2); test: C. elegans larval development and growth assay
# [5] = test system: isolated rat liver mitochondria; test: Oxygen consumption, Clark-type oxygen electrode; assay type: biochemical; details: for I-ADP, % of control (O2 consumption rate): glutamate/malate driven state 3 respiration; for I-ADP, % of control (O2 consumption rate) / I-sub, % of control (O2 consumption rate) / II-ADP, % of control (O2 consumption rate) / II-sub, % of control (O2 consumption rate): isolated rat liver mitochondria; for I-sub, % of control (O2 consumption rate): glutamate/malate driven state 4 respiration; for II-ADP, % of control (O2 consumption rate): succinate-driven state 3 respiration; for II-sub, % of control (O2 consumption rate): succinate-driven state 4 respiration
# rat primary hepatocytes = test: MMP assay in rat primary hepatocytes
# HepG2 cells [6] = test system: HepG2 cells
# HepG2 cells [7] = details: cited from earlier work
# HepG2 cells [8] = test: ROS-Glo hydrogen peroxide (ROS) assay; assay type: cell-based, human; details: 2 h treatment; mean±SD of three experiments
# hNSC = test: MMP assay in human neural stem cells (hNSC); assay type: cell-based; details: mean±SD of three experiments
# [9] = test system: mitochondrial respiratory chain complex IV; assay type: biochemical, rat
# [10] = test system: p53 (p53-bla HCT-116 cells); test: p53 β-lactamase reporter gene assay; assay type: cell-based, human; details: 16 h incubation; mean±SD of three experiments
# HepG2 cells [11] = test: Oxygen consumption, Seahorse XF24 analyzer; assay type: cell-based, human
# HepG2 cells [12] = test: Intracellular ATP content (cell viability) assay; assay type: cell-based, human; details: for IC50: 40 h treatment, mean±SD of three experiments
# [13] = biological target: T1, mitochondrial respiratory chain complex II (Rattus norvegicus, UniProt P21913+Q641Z9+Q6PCT8+Q920L2); test: Respiratory chain complex II activity; assay type: biochemical; details: tested up to 100μM
# T1 construct: Submitochondrial particles were prepared by subjecting the intact rat mitochondria, isolated as described above, to three successive freeze–thaw cycles; from tissue; host or cells: rat liver mitochondria (submitochondrial particles)
# [14] = test system: HeLa cells expressing YFP-Parkin; test: Parkin translocation assay; assay type: cell-based, human
# [15] = test system: mitochondrial respiratory chain complex V; assay type: biochemical, rat
# [16] = test system: mitochondrial respiratory chain complex III; assay type: biochemical, rat
# T1 sequence (Q920L2 35-656): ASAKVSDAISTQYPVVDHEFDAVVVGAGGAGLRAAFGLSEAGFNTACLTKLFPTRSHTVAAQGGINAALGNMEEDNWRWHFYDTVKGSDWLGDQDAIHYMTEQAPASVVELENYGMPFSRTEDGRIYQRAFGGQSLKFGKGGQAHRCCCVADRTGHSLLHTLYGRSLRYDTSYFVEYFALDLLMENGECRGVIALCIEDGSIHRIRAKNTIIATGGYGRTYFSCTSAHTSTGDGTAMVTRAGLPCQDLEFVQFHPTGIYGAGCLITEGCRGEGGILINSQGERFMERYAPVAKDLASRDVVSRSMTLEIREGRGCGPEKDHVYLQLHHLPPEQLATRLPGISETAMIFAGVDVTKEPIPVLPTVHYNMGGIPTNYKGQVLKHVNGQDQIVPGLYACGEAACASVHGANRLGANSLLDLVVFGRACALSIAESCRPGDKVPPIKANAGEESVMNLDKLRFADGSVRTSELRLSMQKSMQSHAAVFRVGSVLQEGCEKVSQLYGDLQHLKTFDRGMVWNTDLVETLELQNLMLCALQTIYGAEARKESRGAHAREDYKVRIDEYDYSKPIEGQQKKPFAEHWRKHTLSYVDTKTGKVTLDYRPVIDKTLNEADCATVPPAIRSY
# T1 sequence (P21913 31-282): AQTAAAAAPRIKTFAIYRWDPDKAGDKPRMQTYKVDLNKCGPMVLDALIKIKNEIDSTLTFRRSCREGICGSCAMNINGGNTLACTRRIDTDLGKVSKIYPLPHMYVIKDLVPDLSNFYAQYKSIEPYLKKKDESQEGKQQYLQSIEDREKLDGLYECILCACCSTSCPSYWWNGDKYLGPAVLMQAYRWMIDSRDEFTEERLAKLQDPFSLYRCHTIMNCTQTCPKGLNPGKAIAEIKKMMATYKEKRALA
# T1 sequence (Q641Z9 1-169): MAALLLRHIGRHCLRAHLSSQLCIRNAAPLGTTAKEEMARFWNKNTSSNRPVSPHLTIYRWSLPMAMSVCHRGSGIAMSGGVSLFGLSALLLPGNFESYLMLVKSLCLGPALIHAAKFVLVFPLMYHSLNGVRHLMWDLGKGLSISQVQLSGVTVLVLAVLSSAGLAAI
# T1 sequence (Q6PCT8 57-159): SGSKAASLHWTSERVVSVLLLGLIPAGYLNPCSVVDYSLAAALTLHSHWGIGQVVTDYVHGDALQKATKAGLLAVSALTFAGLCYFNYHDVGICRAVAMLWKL
smiles,measurement,setting,value
CCN1C(=CC=Cc2ccc3ccccc3[n+]2CC)C=Cc2ccccc21.[Cl-] [Pinacyanol chloride],LUM: mean difference in luminescence (ATP content) relative to plate controls,[1]; 0.005 µM,0.1466
same,LUM: mean difference in luminescence (ATP content) relative to plate controls,[1]; 0.01 µM,0.1001
same,LUM: mean difference in luminescence (ATP content) relative to plate controls,[1]; 0.05 µM,0.1404
same,LUM: mean difference in luminescence (ATP content) relative to plate controls,[1]; 0.1 µM,0.3228
same,LUM: mean difference in luminescence (ATP content) relative to plate controls,[1]; 0.5 µM,1.055
same,LUM: mean difference in luminescence (ATP content) relative to plate controls,[1]; 1 µM,-0.08665
same,LUM: mean difference in luminescence (ATP content) relative to plate controls,[1]; 5 µM,3.898
same,LUM: mean difference in luminescence (ATP content) relative to plate controls,[1]; 10 µM,3.595
same,LUM: mean difference in luminescence (ATP content) relative to plate controls,[1]; 25 µM,3.9673
same,LUM: mean difference in luminescence (ATP content) relative to plate controls,[1]; 50 µM,3.294
same,LUM: mean difference in luminescence (ATP content) relative to plate controls,[1]; 75 µM,3.822
same,LUM: mean difference in luminescence (ATP content) relative to plate controls,[1]; 100 µM,4.216
same,effect on ATP content (in words),"[1]; 0.5–100μM, 24 h exposure",inhibited
same,"LEC LUM: lowest effect concentration for luminescence, a measure of nematode ATP content","[1]; C. elegans ATP, JT trend test, Bonferoni correction p<0.05",0.25 µM
same,EC50,"[2]; 16 h incubation, mean±SD of three experiments, read-out: ARE (HepG2) EC50",1390 ± 950 nM
same,ARE (HepG2) (efficacy),[2]; % of positive control,62.8±13.4%
same,inhibition effect on Complex I,[3]; at 4.0μM,23.6%
same,Complex I % inhibition,[3]; at 20μM,38.3±1.92 at 20μM %
same,EXT: mean difference in nematode size relative to plate controls,[4]; 0.005 µM,0.5663
same,EXT: mean difference in nematode size relative to plate controls,[4]; 0.01 µM,0.679
same,EXT: mean difference in nematode size relative to plate controls,[4]; 0.05 µM,1.058
same,EXT: mean difference in nematode size relative to plate controls,[4]; 0.1 µM,0.8774
same,EXT: mean difference in nematode size relative to plate controls,[4]; 0.5 µM,1.355
same,larval growth effect at 0.5μM,"[4]; 0.5μM, 48 h exposure",severe larval growth arrest
same,EXT: mean difference in nematode size relative to plate controls,[4]; 1 µM,1.41
same,EXT: mean difference in nematode size relative to plate controls,[4]; 5 µM,1.888
same,EXT: mean difference in nematode size relative to plate controls,[4]; 10 µM,1.689
same,EXT: mean difference in nematode size relative to plate controls,[4]; 50 µM,0.7889
same,effect on larval growth (in words),"[4]; 0.5–100μM, 48 h exposure",inhibited
same,"LEC EXT: lowest effect concentration for extinction, a measure of nematode size","[4]; C. elegans larval growth, JT trend test, Bonferoni correction p<0.05",0.005 µM
same,inhibitory effect at (concentration) on larval growth in the C. elegans assay,[4]; quoted in Discussion,0.005 µM
same,"I-ADP, % of control (O2 consumption rate)",[5]; 0.8 µM,88 (40.4) % of control
same,"I-sub, % of control (O2 consumption rate)",[5]; 0.8 µM,113 (12.6) % of control
same,"II-ADP, % of control (O2 consumption rate)",[5]; 0.8 µM,81 (60.9) % of control
same,"II-sub, % of control (O2 consumption rate)",[5]; 0.8 µM,103 (21.3) % of control
same,"I-ADP, % of control (O2 consumption rate)",[5]; 4 µM,57 (26.1) % of control
same,"I-sub, % of control (O2 consumption rate)",[5]; 4 µM,108 (12.1) % of control
same,"II-ADP, % of control (O2 consumption rate)",[5]; 4 µM,56 (42.3) % of control
same,"II-sub, % of control (O2 consumption rate)",[5]; 4 µM,79 (16.2) % of control
same,"I-ADP, % of control (O2 consumption rate)",[5]; 20 µM,31 (14.2) % of control
same,"I-sub, % of control (O2 consumption rate)",[5]; 20 µM,69 (7.7) % of control
same,"II-ADP, % of control (O2 consumption rate)",[5]; 20 µM,35 (26.2) % of control
same,"II-sub, % of control (O2 consumption rate)",[5]; 20 µM,69 (14.3) % of control
same,"I-ADP, % of control (O2 consumption rate)",[5]; 100 µM,21 (9.7) % of control
same,"I-sub, % of control (O2 consumption rate)",[5]; 100 µM,76 (11.8) % of control
same,"II-ADP, % of control (O2 consumption rate)",[5]; 100 µM,11 (7.6) % of control
same,"II-sub, % of control (O2 consumption rate)",[5]; 100 µM,27 (8.5) % of control
same,effect on mitochondrial respiration (in words),"[5]; Clark-type oxygen electrode, concentrations up to 100μM",slightly milder inhibitory effects on both glutamate/malate-driven respiration and succinate-driven respiration
same,Potential Mechanism,"[5]; mitochondrial respiration in isolated rat liver mitochondria, Clark type oxygen electrode, over tested concentrations",Inhibitor
same,Rat hepatocytes (efficacy) (MMP),"rat primary hepatocytes; % of positive control, mean±SD of three experiments",−75.4±6.24%
same,MMP assays efficacy (%) Rat Hepatocytes,"rat primary hepatocytes; rat hepatocytes, mean ± SD of three experiments",-99±26%
same,IC50,"rat primary hepatocytes; read-out: IC50 in rat primary hepatocytes (MMP, tier-one retest), existing Tox21 10K library stock solutions, 1-h treatment, Excel Table S1",40 nM
same,IC50,"rat primary hepatocytes; read-out: Rat hepatocytes IC50 (MMP), 1 h treatment, fresh re-sourced stocks, mean±SD of three experiments",310 ± 150 nM
same,HepG2 (efficacy) Glucose (MMP),"HepG2 cells [6]; 5 mM glucose, % of positive control, mean±SD of three experiments",−85.9±3.17%
same,HepG2 (efficacy) Galactose (MMP),"HepG2 cells [6]; 10 mM galactose, % of positive control, mean±SD of three experiments",−78.9±0.48%
same,MMP assays efficacy (%) HepG2,"HepG2 cells [6]; HepG2 cells, single number from one experiment",-89%
same,IC50,"HepG2 cells [6]; read-out: HepG2 IC50 Galactose (MMP), 10 mM galactose, no glucose, 1 h treatment, mean±SD of three experiments",0.06 ± 0.02 µM
same,IC50,"HepG2 cells [6]; read-out: HepG2 IC50 Glucose (MMP), 5 mM glucose, 1 h treatment, fresh re-sourced stocks, mean±SD of three experiments",0.04 ± 0.01 µM
same,IC50,"HepG2 cells [6]; read-out: IC50 in HepG2 cells (MMP, tier-one retest), existing Tox21 10K library stock solutions, Excel Table S1",0.02 µM
same,IC50,"HepG2 cells [6]; read-out: MMP assays IC50 (µM) HepG2, HepG2 cells, single number from one experiment",0.0155 µM
same,MMP assays efficacy (%) qHTS-HepG2,HepG2 cells [7],-91±3%
same,IC50,"HepG2 cells [7]; read-out: MMP assays IC50 (µM), qHTS-HepG2",0.01 µM
same,ROS (HepG2) EC50,HepG2 cells [8],Inactive
same,IC50,"hNSC; 1 h treatment, fresh re-sourced stocks, read-out: hNSC IC50 (MMP)",40 ± 10 nM
same,hNSC (efficacy) (MMP),hNSC; % of positive control,−97.1±7.31%
same,Complex IV % inhibition (activity call),[9],Inactive
same,p53 (HCT-116) EC50,[10],Inactive
same,"effect on oxygen consumption rate, Seahorse (in words)",HepG2 cells [11],inhibitory patterns similar to that of rotenone
same,Activity in oxygen consumption,"HepG2 cells [11]; Seahorse XF24, HepG2 cells, 25 mM glucose, 1, 4, 16, and 64μM",Inhibitor
same,IC50,"HepG2 cells [12]; 5 mM glucose, read-out: ATP (HepG2, glucose) IC50",10700 ± 6390 nM
same,"ATP (HepG2, glucose) (efficacy)","HepG2 cells [12]; 5 mM glucose, % of positive control",−107±6.73%
same,IC50,"HepG2 cells [12]; 10 mM galactose, read-out: ATP (HepG2, galactose) IC50",5880 ± 2330 nM
same,"ATP (HepG2, galactose) (efficacy)","HepG2 cells [12]; 10 mM galactose, % of positive control",−105±4.87%
same,Complex II % inhibition (activity call),[13],Inactive
same,Parkin translocation into mitochondria (in words),[14]; 3 h,patterns similar to antimycin A and FCCP
same,Parkin recruitment,"[14]; HeLa cells stably expressing YFP-Parkin, treated for 2 h",Active
same,Complex V % inhibition (activity call),[15],Inactive
same,Complex III % inhibition (activity call),[16],Inactive
